Legend:
[1] = test system: MAO-A; set-up: method as in doi:10.1016/0223-5234(88)90141-9; conditions: Figure 1; cited from earlier work
[2] = test system: MAO-B; set-up: method as in doi:10.1016/0223-5234(88)90141-9; conditions: Figure 1; cited from earlier work
[3] = target: T1, MAO-A (Homo sapiens, UniProt P21397); assay: MAO-A inhibition, recombinant human enzyme, kynuramine substrate, fluorometric end-point; type: biochemical; conditions: mean ± SD of triplicate, racemic mixtures, NI = no inhibition at 100 µM
T1 construct: purchased Merck
T1 sequence (P21397 1-527): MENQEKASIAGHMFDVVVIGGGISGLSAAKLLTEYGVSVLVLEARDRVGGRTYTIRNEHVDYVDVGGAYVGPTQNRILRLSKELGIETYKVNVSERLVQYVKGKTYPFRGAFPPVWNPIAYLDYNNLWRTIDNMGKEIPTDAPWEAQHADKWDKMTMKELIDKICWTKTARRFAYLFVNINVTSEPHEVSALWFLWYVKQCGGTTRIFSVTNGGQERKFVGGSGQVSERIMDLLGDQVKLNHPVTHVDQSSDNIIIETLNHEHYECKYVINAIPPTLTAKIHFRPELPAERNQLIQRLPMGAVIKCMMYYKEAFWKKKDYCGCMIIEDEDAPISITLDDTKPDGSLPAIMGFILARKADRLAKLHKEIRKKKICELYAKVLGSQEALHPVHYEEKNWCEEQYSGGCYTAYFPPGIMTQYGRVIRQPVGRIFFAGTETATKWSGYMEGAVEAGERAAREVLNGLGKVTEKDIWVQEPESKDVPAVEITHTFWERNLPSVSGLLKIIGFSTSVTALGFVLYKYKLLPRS
Procedure: (§1) The in vitro inhibition studies were carried out according to the published procedure, and the inhibition potencies were expressed as the IC50 values (Figure 2). […] A variety of C3 substituents were explored in this study, which included the phenyl, benzyl and 5-methylthiophen-2-yl moieties, while different substituents on the phenyl (e.g., CH3, OCH3, Cl, Br, F, CF3, OCF3, NO2, PhO) were considered.
(§2) The inhibition potencies of the 1,2,4-oxadiazin-5(6H)-one derivatives were determined using commercially available recombinant human MAO-A and MAO-B (Merck) according to the published procedure. Stock solutions of all compounds were prepared in DMSO and added to the enzyme reactions to yield a final concentration of 4% DMSO. […] Kynuramine was used as enzyme substrate for both MAO isoforms and was oxidized to ultimately form 4-hydroxyquinoline, which is a fluorescent metabolite. The concentrations of 4-hydroxyquinoline in the reactions were measured at end-point by fluorescence spectrometry (λex = 310 nm; λem = 400 nm). Using this approach, the rates of kynuramine oxidation by MAO were measured in the presence of different concentrations of the test inhibitors (0.003–100 µM) as well as in the absence of inhibitor. […] IC50 values were estimated from these plots and were reported as the mean ± SD of triplicate determinations.

[4] = target: T2, MAO-B (Homo sapiens, UniProt P27338); assay: MAO-B inhibition, recombinant human enzyme, kynuramine substrate, fluorometric end-point; type: biochemical; conditions: mean ± SD of triplicate, racemic mixtures, NI = no inhibition at 100 µM
T2 construct: purchased Merck
T2 sequence (P27338 1-520): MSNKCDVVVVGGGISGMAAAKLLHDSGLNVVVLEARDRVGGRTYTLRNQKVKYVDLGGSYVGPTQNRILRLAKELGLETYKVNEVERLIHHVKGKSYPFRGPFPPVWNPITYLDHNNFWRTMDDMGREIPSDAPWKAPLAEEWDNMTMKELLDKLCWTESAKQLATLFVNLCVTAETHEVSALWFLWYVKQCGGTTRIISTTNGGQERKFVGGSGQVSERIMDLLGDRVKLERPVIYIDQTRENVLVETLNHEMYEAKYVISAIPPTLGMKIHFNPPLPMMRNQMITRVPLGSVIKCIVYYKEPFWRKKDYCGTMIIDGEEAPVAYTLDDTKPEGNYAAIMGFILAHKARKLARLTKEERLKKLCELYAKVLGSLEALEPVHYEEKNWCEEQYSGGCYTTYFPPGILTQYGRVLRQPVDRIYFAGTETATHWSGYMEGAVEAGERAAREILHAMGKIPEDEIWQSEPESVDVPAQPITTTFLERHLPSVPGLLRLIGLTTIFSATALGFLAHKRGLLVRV
Procedure: as §1, §2

[5] = target: T1, MAO-A; assay: Mode of MAO-A inhibition, Lineweaver-Burk plots; type: biochemical
Procedure: (§3) To investigate the mode of MAO inhibition, Lineweaver–Burk plots were constructed for the two inhibitors of the respective MAO isoforms, 3f and 5f. For each inhibitor, six plots were constructed using a range of eight substrate concentrations (15–250 µM) for each plot. The inhibitor concentrations were selected to bracket the IC50 values. […] For each isoform, a plot was also constructed in the absence of the inhibitor.
(§4) To investigate the mode of inhibition, Lineweaver–Burk plots were constructed. A set of six plots were constructed for each test inhibitor using five inhibitor concentrations that bracketed the IC50 value as well as one plot in the absence of inhibitor. For each line, eight different concentrations of kynuramine (15–250 µM) were used. Subsequently, the slopes of the Lineweaver–Burk plots were plotted versus inhibitor concentration, and the Ki values were estimated from the x-intercept (Ki = −x-intercept).

[6] = target: T2, MAO-B; assay: Mode of MAO-B inhibition, Lineweaver-Burk plots; type: biochemical
Procedure: as §3, §4

Structure (SMILES)	melting point [°C]	IC50 [3] [µM]	IC50 [4] [µM]	mode of MAO-A inhibition ([5]; Lineweaver-Burk plots)	Ki ([5]; from replot of Lineweaver-Burk slopes versus inhibitor concentration (1 to 5 µM), kynuramine 15–250 µM) [µM]	mode of MAO-B inhibition ([6]; Lineweaver-Burk plots)	Ki ([6]; from replot of Lineweaver-Burk slopes versus inhibitor concentration (0.25 to 1.25 µM), kynuramine 15–250 µM) [µM]	IC50 [1] [µM]	IC50 [2] [µM]
N#CCCN1N=C(c2ccc(-c3ccccc3)cc2)OCC1=O [A, 2-(4-Biphenylyl)-4-(2-cyanoethyl)-4H-1,3,4-oxadiazin-5(6H)-one]								32	0.63
COc1ccc(C2=NOCC(=O)N2)cc1 [Compound 3e, 3-(4-Methoxyphenyl)-4H-1,2,4-oxadiazin-5(6H)-one]	188 to 190	27.1 ± 3.98	37.6 ± 9.47						
COc1ccc(Oc2ccc(C3=NOCC(=O)N3)cc2)cc1 [Compound 3f, 3-(4-(4-Methoxyphenoxy)phenyl)-4H-1,2,4-oxadiazin-5(6H)-one]		3.75 ± 0.212	3.98 ± 0.518	competitive inhibition	1.3				
CC1ON=C(c2ccc([N+](=O)[O-])cc2)NC1=O (centres unmarked) [Compound 4c, 6-Methyl-3-(4-nitrophenyl)-4H-1,2,4-oxadiazin-5(6H)-one]	247 to 249	58.5 ± 4.17	14.6 ± 0.092						
Cc1ccc(C2=NOC(C)C(=O)N2)s1 (centres unmarked) [Compound 4d, 6-Methyl-3-(5-methylthiophen-2-yl)-4H-1,2,4-oxadiazin-5(6H)-one]	167 to 169	46.2 ± 9.22	22.3 ± 0.94						

Continued, in another order:

melting point [°C]	IC50 [3] [µM]	IC50 [4] [µM]	mode of MAO-A inhibition ([5]; Lineweaver-Burk plots)	Ki ([5]; from replot of Lineweaver-Burk slopes versus inhibitor concentration (1 to 5 µM), kynuramine 15–250 µM) [µM]	mode of MAO-B inhibition ([6]; Lineweaver-Burk plots)	Ki ([6]; from replot of Lineweaver-Burk slopes versus inhibitor concentration (0.25 to 1.25 µM), kynuramine 15–250 µM) [µM]	Structure (SMILES)	IC50 [1] [µM]	IC50 [2] [µM]
177 to 179	57.9 ± 9.84	21 ± 4.09					CCC1ON=C(c2ccc([N+](=O)[O-])cc2)NC1=O (centres unmarked) [Compound 5c, 6-Ethyl-3-(4-nitrophenyl)-4H-1,2,4-oxadiazin-5(6H)-one]		
151 to 153	58.1 ± 5.28	6.14 ± 0.137					CCC1ON=C(c2ccc(C)s2)NC1=O (centres unmarked) [Compound 5d, 6-Ethyl-3-(5-methylthiophen-2-yl)-4H-1,2,4-oxadiazin-5(6H)-one]		
139 to 141	44.1 ± 6.05	6.22 ± 0.596					CCC1ON=C(c2ccc(OC)cc2)NC1=O (centres unmarked) [Compound 5e, 6-Ethyl-3-(4-methoxyphenyl)-4H-1,2,4-oxadiazin-5(6H)-one]		
117 to 119	15.4 ± 1.98	0.9 ± 0.05			competitive inhibition	0.35	CCC1ON=C(c2ccc(Oc3ccc(OC)cc3)cc2)NC1=O (centres unmarked) [Compound 5f, 6-Ethyl-3-(4-(4-methoxyphenoxy)phenyl)-4H-1,2,4-oxadiazin-5(6H)-one]		
153 to 155	93 ± 3.23	30.7 ± 2.02					CCC1ON=C(c2ccc(F)cc2)NC1=O (centres unmarked) [Compound 5h, 6-Ethyl-3-(4-fluorophenyl)-4H-1,2,4-oxadiazin-5(6H)-one]		
97 to 99	> 100	> 100					CCC1ON=C(Cc2ccccc2)NC1=O (centres unmarked) [Compound 5i, 3-Benzyl-6-ethyl-4H-1,2,4-oxadiazin-5(6H)-one]		
211 to 212	> 100	> 100					O=C(O)CC1ON=C(c2cccc(Cl)c2)NC1=O (centres unmarked) [Compound 8f, 2-(3-(3-Chlorophenyl)-5-oxo-5,6-dihydro-4H-1,2,4-oxadiazin-6-yl)acetic acid]		
208 to 211	> 100	> 100					O=C(O)CC1ON=C(c2ccc(OC(F)(F)F)cc2)NC1=O (centres unmarked) [Compound 8g, 2-(5-Oxo-3-(4-(trifluoromethoxy)phenyl)-5,6-dihydro-4H-1,2,4-oxadiazin-6-yl)acetic acid]		

— PMC11643077, “Synthesis of 1,2,4-Oxadiazin-5(6H)-One Derivatives and Their Biological Investigation as Monoamine Oxidase Inhibitors” (Molecules, 2024)
